pKi: −log10 of the molar value. Where a name gives a salt, the structure may show the parent alone. Read-outs that look alike come from different tables or passages of the source.
Experiments:
human thrombin = human thrombin (Homo sapiens, UniProt P00734); test: Thrombin inhibition assay (selectivity against thrombin); type: biochemical; details: for Selectivity (thrombin/FXa): ratio of Ki values; for pKi: read-out: Inhibition ability against thrombin Ki
Method: The FXa inhibiting selectivity of the compound according to the present invention to thrombin is measured as follows. The inhibition effect of the compound of formula 1 to thrombin is measured in Ki value by practicing the same method as the above measuring method of FXa inhibiting activity, and the rate of thrombin/FXa is obtained. At this time, the experimental method of thrombin is the same as that of FXa, except that Chromozyme TH (Tosyl-Gly-Pro-Arg-nitroanilide acetate) is used as the substrate.
Inhibiting ability of a compound according to the present invention against thrombin activity was measured as follows.
In 1.5 mL cuvette, 0.1M tris buffer solution (pH 7.8) comprising 150 mM NaCl, and 0.1% PEG 8000 (molecular weight 8000) was placed by 1160 uL. Chromozyme X was dissolved in dimethylsulfoxide (DMSO) to be 0.1 mM, and diluted with the above buffer solution to be 0.1 mM to prepare the substrate solution. 225 uL of 0.1 mM substrate solution as prepared above was added to cuvette. The compound of the present invention was dissolved in DMSO to be 10 mM, and diluted with the above buffer solution to be 0.1 mM, 0.01 mM and 0.001 mM, respectively, to prepare an inhibitor solution. The inhibitor solution was taken in an amount from 0 to 20 uL, and supplemented with tris buffer solution up to 20 uL of total volume of the solution to add to the cuvette.
15 uL of human thrombin, which was dissolved in the above tris buffer solution to be 0.1 mg/mL, was added to the cuvette having the reaction solution at room temperature to begin enzyme hydrolysis. The amount of para-nitroanilide produced for 2 minutes after adding enzyme was monitored about variation of absorbency at 381 nm to depict continuous spectrum of reaction time to absorbency. The above experiment was repeated for various concentrations of inhibitor to obtain consecutive spectrum.
The initial velocity Vi was calculated from gradient within 30 sec of the reaction time in each spectrum. A graph was depicted for a reciprocal of the initial velocity to inhibitor concentration (1/Vi). A linear equation corresponding to points on the graph was obtained. Thereafter, Ki may be calculated by using enzyme reaction equation from x intercept.

trypsin [1] = test: Trypsin inhibition assay (selectivity against trypsin); type: biochemical; details: ratio of Ki values
Method: (§1) The FXa inhibition selectivity of the compound according to the present invention to trypsin is measured as follows. The inhibition effect of the compound of formula 1 to trypsin is measured in Ki value by practicing the same method as the above measuring method of FXa inhibiting activity, and the rate of trypsin/FXa is obtained. At this time, the experimental method of thrombin is the same as that of FXa, except that N-benzoyl-Val-Gly-Arg-p-nitroanilide hydrochloride is used as the substrate.
(§2) Inhibition activity of a compound according to the present invention was measured by performing the experiment as explained above concerning FXa.
(§3) 20 uM solution of N-benzoyl-Val-Gly-Arg-p-nitroanilide hydrochloride was used as a substrate. An inhibitor solution with various concentrations in the range of 0 to 120 uM was used. Trypsin was dissolved in 0.1N HCl, and supplemented with the above tris buffer solution to be 45 ug/mL. Thereafter, 40 uL of the trypsin solution was used. The remaining procedure and the used amounts of materials (for example, […] of total volume of the reaction solution) and the like were the same as those of the experiment for thrombin. Also, Km was decided in the same method as used in Ki calculation.

[2] = background art; cited from earlier work
trypsin [3] = target: T1, trypsin (UniProt P00760); test: Trypsin inhibition assay (selectivity against trypsin); type: biochemical; details: read-out: Inhibition ability against trypsin Ki
T1 construct: other: A1: cyclopropyl scaffold; other: A2: pyrrole scaffold; other: A3: bicyclic scaffold; other: A4: cyanophenylalanine scaffold
T1 sequence (P00760 1-246): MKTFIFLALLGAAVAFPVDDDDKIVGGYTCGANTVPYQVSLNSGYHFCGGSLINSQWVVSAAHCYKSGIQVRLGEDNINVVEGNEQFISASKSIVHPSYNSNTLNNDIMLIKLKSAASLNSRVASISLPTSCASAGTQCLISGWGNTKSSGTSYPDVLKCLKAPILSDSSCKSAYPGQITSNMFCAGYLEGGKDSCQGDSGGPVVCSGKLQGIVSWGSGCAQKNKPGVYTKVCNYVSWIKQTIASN
Method: as §1, §2, §3

FXa = FXa (Homo sapiens, UniProt P00742); details: background art; cited from earlier work
[4] = A4: cyanophenylalanine scaffold

Sequence of FXa (P00742 235-488 limits assumed): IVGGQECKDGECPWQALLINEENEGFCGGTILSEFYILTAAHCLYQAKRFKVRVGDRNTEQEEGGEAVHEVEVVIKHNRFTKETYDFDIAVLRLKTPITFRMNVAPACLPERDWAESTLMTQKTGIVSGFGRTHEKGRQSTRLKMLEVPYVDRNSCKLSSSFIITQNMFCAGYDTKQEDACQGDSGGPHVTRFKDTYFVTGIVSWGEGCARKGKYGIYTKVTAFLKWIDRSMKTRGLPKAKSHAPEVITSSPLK
Sequence of FXa (P00742 41-179 limits assumed): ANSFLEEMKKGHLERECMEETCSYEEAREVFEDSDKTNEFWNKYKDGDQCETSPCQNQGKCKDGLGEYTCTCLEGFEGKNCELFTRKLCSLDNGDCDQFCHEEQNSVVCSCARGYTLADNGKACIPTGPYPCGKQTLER

With Cc1ccc(S(N)(=O)=O)c(-c2ccc(NC(=O)[C@@H]3C[C@@H]3c3cccc(C(=N)N)c3)cc2)c1.O=C(O)C(F)(F)F (relative stereo) [Compound No. A1-4, 4-(2-aminosulfonyl-5-methyl-phenyl)-phenyl cis-2-(3-aminoiminomethylphenyl)-cyclopropane-1-carboxamide mono trfluoroacetic acid salt] the “Selectivity (thrombin/FXa)” value (human thrombin; A1: cyclopropyl scaffold) was 127 and the pKi (human thrombin; A1: cyclopropyl scaffold) was 6.42.

In the case of Cc1ccc(S(N)(=O)=O)c(-c2ccc(NC(=O)[C@@H]3C[C@H]3c3cccc(C(=N)N)c3)cc2)c1.O=C(O)C(F)(F)F (relative stereo) [Compound No. A1-3], the “Selectivity (thrombin/FXa)” value (human thrombin; A1: cyclopropyl scaffold) was 5 and the “Selectivity (trypsin/FXa)” value (trypsin [1]; A1: cyclopropyl scaffold) was 0.94.

In the case of “Ethyl 4-(3-aminoiminomethylbenzyl)-1-aminoiminomethylbenzyl)-pyrrole-3-carboxylate bis trifluoroacetic acid salt [Compound No. A2-37]”, the “Selectivity (thrombin/FXa)” value (human thrombin; A2: pyrrole scaffold) was 7.0.

In the case of N=C(N)c1cccc(-c2ccccc2NS(=O)(=O)Cc2ccccc2)c1.O=C(O)C(F)(F)F [Compound No. A3-21], the “Selectivity (thrombin/FXa)” value (human thrombin; A3: bicyclic scaffold) was 0.73.

In the case of CC(C)c1nc2c(C(=O)O)cc(NC3CCN(C(=N)N)CC3)cc2n1Cc1ccc2ccc(C(=N)N)cc2c1 [ZK-807369], the oral absorption [2] is listed as “capable of being absorbed orally”.

In the case of C[n+]1cccc(-c2ccc(NC(=O)C3=C(c4cccc(C(=N)N)c4)CCC3)cc2)c1.O=C([O-])C(F)(F)F [Compound No. A3-26, 4-(N-methylpyridinium-3-yl)-phenyl 2-(3-aminoiminomethylphenyl)-cyclopenetene-1-carboxamide trifluoroacetic acid salt], the “Selectivity (thrombin/FXa)” value (human thrombin; A3: bicyclic scaffold) was 670, the pKi (trypsin [3]; A3: bicyclic scaffold) was 6.68 and the “Selectivity (trypsin/FXa)” value (trypsin [1]; A3: bicyclic scaffold) was 10.

In the case of Cc1ccc(S(N)(=O)=O)c(-c2ccc(NC(=O)[C@@H]3C[C@H]3c3cccc(C(=N)N)c3)cc2)c1.O=C(O)C(F)(F)F (relative stereo) [Compound No. A1-3, 4-(2-aminosulfonyl-5-methyl-phenyl)-phenyl trans 2-(3-aminoiminomethylphenyl-cyclopropane-1-carboxamidemonotrifluoroacetic acid salt], the pKi (human thrombin; A1: cyclopropyl scaffold) was 6.28 and the pKi (trypsin [3]; A1: cyclopropyl scaffold) was 6.92.

For CCOC(=O)c1cn(Cc2cccc(C(=N)N)c2)cc1-c1cccc(-c2ccccc2)c1.O=C(O)C(F)(F)F [Compound No. A2-51, Ethyl 4-(3-biphenyl)-1-(3-aminoiminomethylbenzyl)-pyrrole-3-carboxylate trifluoroacetic acid salt], the “Selectivity (thrombin/FXa)” value (human thrombin; A2: pyrrole scaffold) was 0.08.

With “4-(2-cyanophenyl)-phenyl N-carboxymethyl)-3-(3-aminoiminomethylphenyl)alanine amide trifluoroacetic acid salt [Compound No. A4-10]” the “Selectivity (thrombin/FXa)” value (human thrombin; [4]) was 14 and the pKi (human thrombin; [4]) was 5.77.

For N#Cc1ccccc1-c1ccc(NC(=O)[C@@H]2C[C@@H]2c2cccc(C(=N)N)c2)cc1.O=C(O)C(F)(F)F (relative stereo) [Compound No. A1-7, 4-(2-cyanophenyl)-phenyl [1,2]-cis, [2,3]-cis-2-(3-aminoiminomethylphenyl)cyclopropane-1-carboxamide mono trifluoroacetic acid salt], the “Selectivity (thrombin/FXa)” value (human thrombin; A1: cyclopropyl scaffold) was 400, the pKi (human thrombin; A1: cyclopropyl scaffold) was 5.70 and the pKi (trypsin [3]; A1: cyclopropyl scaffold) was 6.70. The “Selectivity (trypsin/FXa)” value (trypsin [1]; A1: cyclopropyl scaffold) was 40.

For CCOC(=O)c1cn(Cc2ccc(C(=N)N)cc2)cc1Cc1ccc(C(=N)N)cc1.O=C(O)C(F)(F)F.O=C(O)C(F)(F)F [Compound No. A2-42], the “Selectivity (thrombin/FXa)” value (human thrombin; A2: pyrrole scaffold) was 4.7.

In the case of CCOC(=O)c1cn(Cc2ccccc2)cc1Cc1ccc(C(=N)N)cc1.O=C(O)C(F)(F)F [Compound No. A2-1, Ethyl 4-(4-aminoiminomethylbenzyl)-benzyl-pyrrole-3-carboxylate trifluoroacetic acid salt], the “Selectivity (thrombin/FXa)” value (human thrombin; A2: pyrrole scaffold) was 0.1.

For N=C(N)c1ccc(NC(=O)Nc2ccccc2-c2ccc(C(=N)N)cc2)cc1.O=C(O)C(F)(F)F.O=C(O)C(F)(F)F [Compound No. A3-9], the “Selectivity (thrombin/FXa)” value (human thrombin; A3: bicyclic scaffold) was 0.04.

In the case of CCOC(=O)c1cn(Cc2ccc(-c3ccccc3)cc2)cc1Cc1cccc(C(=N)N)c1.O=C(O)C(F)(F)F [Compound No. A2-19, Ethyl 4-(3-aminoiminomethylbenzyl)-1-(4-biphenylmethyl)-pyrrole-3-carboxylate trifluoroacetic acid salt], the “Selectivity (thrombin/FXa)” value (human thrombin; A2: pyrrole scaffold) was 0.4.

In the case of N=C(N)c1ccc(O)c(CN2CC[C@H](NS(=O)(=O)c3ccc(-c4cccnc4)s3)C2=O)c1 [RPR-130737], the “effect as a Fxa inhibitor” value (FXa) is listed as “excellent effect as a Fxa inhibitor” and the “selectivity against thrombin, trypsin and the like enzymes” value (FXa) is listed as “excellent selectivity against thrombin, trypsin and the like enzymes”.

For CC(=N)N1CCC(Oc2ccc(N(Cc3ccc4ccc(C(=N)N)cc4c3)S(=O)(=O)CC(=O)O)cc2)CC1 [YM-60828], the oral absorption [2] is given as “capable of being absorbed orally”.

In the case of CCOC(=O)c1cn(Cc2cccc(C(=N)N)c2)cc1-c1ccc(-c2ccccc2)cc1.O=C(O)C(F)(F)F [Compound No. A2-52, Ethyl 4-(4-biphenyl)-1-(3-aminoiminomethylbenzyl)-pyrrole-3-carboxylate trifluoroacetic acid salt], the “Selectivity (thrombin/FXa)” value (human thrombin; A2: pyrrole scaffold) was 2.6.

For CN1CCN=C1c1cccc(Oc2nc(Oc3cc(C(=N)N)ccc3O)c(F)c(N(C)CC(=O)O)c2F)c1 [ZK-80719], the oral absorption [2] is given as “capable of being absorbed orally”.

With N=C(N)c1ccc(NC(=O)Nc2ccccc2-c2cccc(C(=N)N)c2)cc1.O=C(O)C(F)(F)F.O=C(O)C(F)(F)F [Compound No. A3-10] the “Selectivity (thrombin/FXa)” value (human thrombin; A3: bicyclic scaffold) was 0.82.

In the case of N=C(N)c1cccc(NC(=O)Nc2ccccc2-c2cccc(C(=N)N)c2)c1.O=C(O)C(F)(F)F.O=C(O)C(F)(F)F [Compound No. A3-11], the “Selectivity (thrombin/FXa)” value (human thrombin; A3: bicyclic scaffold) was 6.4.

For N=C(N)c1ccc(Cn2cc(Cc3cccc(C(=N)N)c3)c(C(=O)N3CCOCC3)c2)cc1 [Compound No. A2-40, 4-(3-Aminoiminomethylbenzyl)-1-(4-aminoiminomethylbenzyl)-pyrrole-3-carboxylic acid morphorline amide bis trifluoroacetic acid salt], the “Selectivity (thrombin/FXa)” value (human thrombin; A2: pyrrole scaffold) was 14.

In the case of N=C(N)c1ccc(-c2ccccc2NC(=O)Nc2cccc(C(=N)N)c2)cc1.O=C(O)C(F)(F)F.O=C(O)C(F)(F)F [Compound No. A3-8], the “Selectivity (thrombin/FXa)” value (human thrombin; A3: bicyclic scaffold) was 1.6.

For “4-(4-Aminoiminomethylbenzyl)-1-(3-aminoiminomethylhydroxy-benzyl)-pyrrole-3-carboxylic acid bis trifluoroacetic acid salt [Compound No. A2-30]”, the “Selectivity (thrombin/FXa)” value (human thrombin; A2: pyrrole scaffold) was 190.

In the case of N=C(N)c1cccc(C2=NOC(Cc3nn[nH]n3)(C(=O)Nc3ccc(-c4ccccc4S(N)(=O)=O)cc3)C2)c1 (stereo not drawn) [SK-549], the “effect as a Fxa inhibitor” value (FXa) is given as “excellent effect as a Fxa inhibitor” and the “selectivity against thrombin, trypsin and the like enzymes” value (FXa) is given as “excellent selectivity against thrombin, trypsin and the like enzymes”.

For CC(=N)N1CC[C@H](Oc2ccc(C(Cc3ccc4ccc(C(=N)N)cc4c3)C(=O)O)cc2)C1 (stereo partly drawn) [DX9065a], the oral absorption [2] is listed as “capable of being absorbed orally”.
